From patent publication US20240390340A1 (INCYTE CORPORATION, priority 2023, published 2024)
Read-outs that look alike come from different tables or passages of the source.

Key:
KRAS G12D = KRAS G12D (Homo sapiens, UniProt P01116, G12D); assay: GDP-GTP exchange assay (bodipy-GDP/GppNHp, SOS1), KRAS G12D; type: biochemical
KRAS G12V = KRAS G12V (Homo sapiens, UniProt P01116, G12V); assay: GDP-GTP exchange assay (bodipy-GDP/GppNHp, SOS1), KRAS G12V; type: biochemical
[1] = bodipy-loaded KRAS G12D 2.5 nM, 4 h pre-incubation, value for the most potent isomer quoted for certain compounds, read-out: G12D (KRAS G12D exchange assay IC50)
[2] = KRAS G12V mutant, value for the most potent isomer quoted for certain compounds, read-out: G12V (KRAS G12V exchange assay IC50)
[3] = Table H, column G12D, for compounds isolated as several atropisomers/diastereoisomers the value for the most potent isomer is quoted, read-out: KRAS G12D exchange assay IC50
[4] = Table H, column G12V, for compounds isolated as several atropisomers/diastereoisomers the value for the most potent isomer is quoted, read-out: KRAS G12V exchange assay IC50

Sequence of KRAS G12V (P01116 1-188 isoform P01116-2 G12V): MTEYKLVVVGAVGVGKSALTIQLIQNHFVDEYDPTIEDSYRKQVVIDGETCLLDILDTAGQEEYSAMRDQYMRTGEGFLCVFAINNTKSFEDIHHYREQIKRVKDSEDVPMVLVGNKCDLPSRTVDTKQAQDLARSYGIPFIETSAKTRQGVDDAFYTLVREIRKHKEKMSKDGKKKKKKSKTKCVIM
Sequence of KRAS G12D (P01116 1-188 isoform P01116-2 G12D): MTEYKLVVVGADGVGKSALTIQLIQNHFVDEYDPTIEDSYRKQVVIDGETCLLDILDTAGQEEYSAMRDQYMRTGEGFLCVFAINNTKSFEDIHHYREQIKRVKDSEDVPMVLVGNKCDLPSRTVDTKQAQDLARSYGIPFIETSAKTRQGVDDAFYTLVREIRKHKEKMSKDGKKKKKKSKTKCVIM

| Structure (SMILES) | IC50 (KRAS G12D; [1]) [µM] | IC50 (KRAS G12V; [2]) [µM] | IC50 (KRAS G12D; [3]) [µM] | IC50 (KRAS G12V; [4]) [µM] |
| --- | --- | --- | --- | --- |
| Cc1cn([C@H]2C[C@H](c3cc4c(C)nc5c(F)c(-c6cccc(Cl)c6Cl)c(CCC#N)cc5c4n3[C@H]3[C@H]4CN[C@@H]3C4)N(C(=O)C3CC3)C2)cn1 [Example 282] | ≤ 0.1 | ≤ 0.1 | – | – |
| CCOC(=O)c1cnn([C@H]2C[C@H](c3cc4c(C)nc5c(F)c(-c6cccc(Cl)c6Cl)c(CCC#N)cc5c4n3[C@H]3[C@H]4CN[C@@H]3C4)N(C(=O)C3CC3)C2)n1 [Example 393] | ≤ 0.1 | ≤ 0.1 | – | – |
| Cc1nc2c(F)c(-c3cccc(Cl)c3Cl)c(CCC#N)cc2c2c1cc([C@H]1C[C@H](Oc3ccnc(N4CC(OC(F)F)C4)c3)CN1C(=O)C1CC1)n2[C@H]1[C@H]2CN[C@@H]1C2 [Example 368] | ≤ 0.1 | ≤ 0.1 | – | – |
| Cc1nc2c(F)c(-c3cccc(Cl)c3Cl)c(CCC#N)cc2c2c1cc([C@H]1C[C@H](Oc3cnccn3)CN1C(=O)C1CC1)n2[C@H]1[C@H]2CN[C@@H]1C2 [Example 137] | ≤ 0.1 | ≤ 0.1 | – | – |
| Cc1nc2c(F)c(-c3cccc(Cl)c3Cl)c(CCC#N)cc2c2c1cc([C@H]1C[C@H](OC(F)(F)c3ccccc3)CN1C(=O)C1CC1)n2[C@H]1[C@H]2CN[C@@H]1C2 [Example 79, 3-(1-((1R,4R,5S)-2-Azabicyclo[2.1.1]hexan-5-yl)-2-((2R,4S)-1-(cyclopropanecarbonyl)-4-(difluoro(phenyl)methoxy)pyrrolidin-2-yl)-7-(2,3-dichlorophenyl)-6-fluoro-4-methyl-1H-pyrrolo[3,2-c]quinolin-8-yl)propanenitrile] | – | – | ≤ 0.1 | ≤ 0.1 |
| CCc1nnn([C@H]2C[C@H](c3cc4c(C)nc5c(F)c(-c6cccc(Cl)c6Cl)c(CCC#N)cc5c4n3[C@H]3[C@H]4CN[C@@H]3C4)N(C(=O)C3CC3)C2)c1-c1ccccc1 [Example 392] | ≤ 0.1 | ≤ 0.1 | – | – |
| Cc1nc2c(F)c(-c3cccc(Cl)c3Cl)c(CCC#N)cc2c2c1cc([C@H]1C[C@H](n3ccc(CC#N)n3)CN1C(=O)C1CC1)n2[C@H]1[C@H]2CN[C@@H]1C2 [Example 316] | ≤ 0.1 | ≤ 0.1 | – | – |
| Cc1nc2c(F)c(-c3cccc(Cl)c3Cl)c(CCC#N)cc2c2c1cc([C@H]1C[C@H](OCc3ccns3)CN1C(=O)C1CC1)n2[C@H]1[C@H]2CN[C@@H]1C2 [Example 257] | ≤ 0.1 | ≤ 0.1 | – | – |
| Cc1nc2c(F)c(-c3cccc(Cl)c3Cl)c(CCC#N)cc2c2c1cc([C@H]1C[C@H](Oc3ccc(N)nc3)CN1C(=O)C1CC1)n2[C@H]1[C@H]2CN[C@@H]1C2 [Example 296] | ≤ 0.1 | ≤ 0.1 | – | – |
| Cc1nc2c(F)c(-c3cccc(Cl)c3Cl)c(CCC#N)cc2c2c1cc([C@H]1C[C@H](n3nc(CC#N)nc3C)CN1C(=O)C1CC1)n2[C@H]1[C@H]2CN[C@@H]1C2 [Example 351] | ≤ 0.1 | ≤ 0.1 | – | – |
| CCc1cnn([C@H]2C[C@H](c3cc4c(C)nc5c(F)c(-c6cccc(Cl)c6Cl)c(CCC#N)cc5c4n3[C@H]3[C@H]4CN[C@@H]3C4)N(C(=O)C3CC3)C2)c1 [Example 280] | ≤ 0.1 | ≤ 0.1 | – | – |
| CNC(=O)c1cccc(O[C@H]2C[C@H](c3cc4c(C)nc5c(F)c(-c6cccc(Cl)c6Cl)c(CCC#N)cc5c4n3[C@H]3[C@H]4CN[C@@H]3C4)N(C(=O)C3CC3)C2)c1 [Example 173] | ≤ 0.1 | ≤ 0.1 | – | – |
| Cc1nc2c(F)c(-c3cccc(Cl)c3Cl)c(CCC#N)cc2c2c1cc([C@H]1C[C@H](n3cc(C(F)F)nn3)CN1C(=O)C1CC1)n2[C@H]1[C@H]2CN[C@@H]1C2 [Example 380] | ≤ 0.1 | ≤ 0.1 | – | – |
| Cc1nc2c(F)c(-c3cccc(Cl)c3Cl)c(CCC#N)cc2c2c1cc([C@H]1C[C@H](Oc3cccc(C(=O)N(C)C)c3)CN1C(=O)C1CC1)n2[C@H]1[C@H]2CN[C@@H]1C2 [Example 174] | ≤ 0.1 | ≤ 0.1 | – | – |
| Cc1nc2c(F)c(-c3cccc(Cl)c3Cl)c(CCC#N)cc2c2c1cc([C@H]1C[C@H](OCc3ccnn3C(F)(F)F)CN1C(=O)C1CC1)n2[C@H]1[C@H]2CN[C@@H]1C2 [Example 312] | ≤ 0.1 | ≤ 0.1 | – | – |
| Cc1nc2c(F)c(-c3cccc(Cl)c3Cl)c(CCC#N)cc2c2c1cc([C@H]1C[C@H](OCc3ccccn3)CN1C(=O)C1CC1)n2[C@H]1[C@H]2CN[C@@H]1C2 [Example 94] | ≤ 0.1 | ≤ 0.1 | – | – |
| Cc1nc2c(F)c(-c3cccc(Cl)c3Cl)c(CCC#N)cc2c2c1cc([C@H]1C[C@H](Oc3ccc(=O)n(C)c3)CN1C(=O)C1CC1)n2[C@H]1[C@H]2CN[C@@H]1C2 [Example 50] | – | – | ≤ 0.1 | ≤ 0.1 |
| CN1CC=C(c2nc3c(F)c(-c4cccc(Cl)c4Cl)c(CCC#N)cc3c3c2cc([C@H]2C[C@H](OCc4c(F)cccc4F)CN2C(=O)C2CC2)n3[C@H]2[C@H]3CN[C@@H]2C3)CC1 [Example 219] | ≤ 0.1 | ≤ 0.1 | – | – |
| Cc1nc2c(F)c(-c3cccc(Cl)c3Cl)c(CCC#N)cc2c2c1cc([C@H]1C[C@H](OCc3c(F)cccc3F)CN1C(=O)c1ccccc1)n2[C@H]1[C@H]2CN[C@@H]1C2 [Example 195] | 0.1 to 1 | ≤ 0.1 | – | – |
| Cc1nc2c(F)c(-c3cccc(Cl)c3Cl)c(CCC#N)cc2c2c1cc([C@H]1C[C@H](OC3CC3C(=O)NC(C)(C)C)CN1C(=O)C1CC1)n2[C@H]1[C@H]2CN[C@@H]1C2 (stereo partly shown) [Example 378] | ≤ 0.1 | ≤ 0.1 | – | – |
| Cc1nc2c(F)c(-c3cccc(Cl)c3Cl)c(CCC#N)cc2c2c1cc([C@H]1C[C@H](Oc3cnn(CC(F)F)c3)CN1C(=O)C1CC1)n2[C@H]1[C@H]2CN[C@@H]1C2 [Example 377] | ≤ 0.1 | ≤ 0.1 | – | – |
| Cc1cc(-c2nc3c(F)c(-c4cccc(Cl)c4Cl)c(CCC#N)cc3c3c2cc([C@H]2C[C@H](OCc4c(F)cccc4F)CN2C(=O)C2CC2)n3[C@H]2[C@H]3CN[C@@H]2C3)cc(C)n1 [Example 208] | 5 to 10 | 5 to 10 | – | – |
| Cc1nc2c(F)c(-c3cccc(Cl)c3Cl)c(CCC#N)cc2c2c1cc([C@H]1C[C@H](OCC3CCCCC3)CN1C(=O)C1CC1)n2[C@H]1[C@H]2CN[C@@H]1C2 [Example 86] | ≤ 0.1 | ≤ 0.1 | – | – |
